Earlier results, collected in patent US7780647B2, “Medical device with therapeutic agents” (Cook Incorporated, priority 2003, dated 2010).

Tests used:
[1] = test system: smooth muscle cell proliferation; settings: both in vitro and in vivo
[2] = test system: restenosis of human coronary arteries; settings: following stent use

CC(=O)O[C@H]1C(=O)[C@@]2(C)[C@H]([C@H](OC(=O)c3ccccc3)[C@]3(O)C[C@H](OC(=O)[C@H](O)[C@@H](NC(=O)c4ccccc4)c4ccccc4)C(C)=C1C3(C)C)[C@]1(OC(C)=O)CO[C@@H]1C[C@@H]2O [paclitaxel]
smooth muscle cell proliferation [1]: inhibits smooth muscle cell proliferation
restenosis of human coronary arteries [2]: decrease restenosis
